Source: EP0470144B1, “BETA-HYDROXAMATE D-ASPARTIC ACID FOR TREATMENT OF VIRAL INFECTIONS AND TUMOURS” (priority 1989, dated 1990)
Several values for one entry are separate records, joined by “and”; a condition that tells them apart may be missing. Identical values can stand only once.

Experiments:
[1] = test system: lymphocytes de donneurs sains; assay: Growth and cell mortality of uninfected lymphocytes from healthy donors; type: cell-based; conditions: 0,5-2 mM DAH
Source text: (§1) Cette inhibition est dose-dépendante. Les essais ont d'abord porté sur des lymphoytes de donneurs sains (Figures 1 et 2). On a pu mettre en évidence cette activité sur deux modèles de réplication du HIV : a) lymphocytes normaux infectés par le virus purifié et b) coculture des lymphocytes des malades du SIDA et de lymphocytes normaux. On a mesuré l'activité transcriptase inverse pendant 22 jours dans le surnageant de cultures cellulaires comme critère de prolifération virale. Le traitement avec le DAH a duré 72 heures de J₀ à J₃ de la manipulation (Figures 3, 4 et 5). […] Par contre, le DAH s'est montré plus toxique vis-à-vis des lymphocytes infectés par le virus du SIDA (Figures 6 et 7).
Effet du DAH sur le taux de croissance de lymphocytes de donneurs sains.
(●) absence de DAH (o) concentration en DAH = 0,5 mM (□) concentration en DAH = 1 mM (△) concentration en DAH = 1,5 mM (◇) concentration en DAH = 2 mM • . En abscisses : temps de culture (en jours) • . En ordonnées : taux de croissance
Effet du DAH sur la mortalité cellulaire de lymphocytes sains.
(●) absence de DAH (o) concentration en DAH = 0,5 mM (□) concentration en DAH = 1 mM (△) concentration en DAH = 1,5 mM (◇) concentration en DAH = 2 mM • . En abscisses : temps de culture (en jours) • . En ordonnées : proportion de cellules mortes (en %)

[2] = test system: leucémie 1210, lymphome RBL5 et mélanome B16; conditions: 600 mg/kg per day for 5 days; cited from earlier work
[3] = biological target: T1, transcriptase inverse (RT) du FLV (Friend murine leukemia virus, UniProt P26810); assay: Reverse transcriptase (RT) activity of highly purified FLV, poly A-oligo dT substrate; type: biochemical; conditions: at concentrations giving the anti-retroviral effect in cell culture
T1 construct: comme source de RT une préparation de FLV hautement purifié; from tissue; host or cells: highly purified FLV virus preparation (virions)
Source text: La transcriptase inverse étant la cible de divers agents anti-rétroviraux, il est intéressant de tester l'effet du DAH sur l'activité transcriptase inverse (RT) du FLV. Cet essai a été effectué en utilisant comme source de RT une préparation de FLV hautement purifié, et comme substrat du poly A-oligo dT. Les substrats ont été introduits dans le milieu réactionnel dans l'ordre suivant : DAH aux concentrations désirées, virus purifié, polyA-oligo dT, dTTP + ³HdTTP.

[4] = Pre-clinical pharmacology: DAH levels in serum and urine after intraperitoneal injection; type: in vivo, souris B6D2F1; conditions: 3 g/kg intraperitoneal
Source text: Le DAH a été dosé dans les sérums et les urines de souris B6D2F1 âgées de 8 semaines, ayant reçu une injection intrapéritonéale de DAH de 3 g/kg. Le DAH a été dosé par spectrophotométrie par mise en évidence du complexe Fe3+- hydroxamate à 550 nm.

[5] = Acute parenteral toxicity in mice (lethal doses); type: in vivo, souris B6D2F1; conditions: evaluated at 24 hours and 14 days
Source text: La toxicité du DAH par voie parentérale a été évaluée chez la souris B6D2F1 âgée de six semaines et pesant entre 20 et 22 g. Pour chaque niveau de dose, on a utilisé treize mâles et treize femelles avec une période d'observation de 14 jours. La dose léthale (DL) a été évaluée 24 heures après l'injection de DAH puis à 14 jours. Dans ces conditions, on a pu montrer que la DL 10 (10 % de mortalité) était observée pour des posologies de 8,5-9 g/kg, la DL 50 correspondait à 11-12 g/kg et la DL 90 à 14-15 g/kg. Il n'a pas été observé de différence significative de mortalité à 24 heures et à 14 jours pour un niveau de dose donné.

[6] = test system: lymphocytes infectés par le virus du SIDA; assay: Growth and cell mortality of HIV-infected lymphocytes; type: cell-based; conditions: 0,5-2 mM DAH; compared with uninfected lymphocytes
Source text: as §1
Effet du DAH sur le taux de croissance de lymphocytes infectés.
(●) absence de DAH (o) concentration en DAH = 0,5 mM (□) concentration en DAH = 1 mM (△) concentration en DAH = 1,5 mM (◇) concentration en DAH = 2 mM • . En abscisses : temps de culture (en jours) • . En ordonnées : taux de croissance.
Effet du DAH sur la mortalité cellulaire de lymphocytes infectés.
(●) absence de DAH (o) concentration en DAH = 0,5 mM (□) concentration en DAH = 1 mM (△) concentration en DAH = 1,5 mM (◇) concentration en DAH = 2 mM • . En abscisses : temps de culture (en jours) • . En ordonnées : proportion de cellules mortes (en %).

leucémie P388 = assay: Antitumour activity in the P388 leukaemia model, survival; type: in vivo, souris B6D2F1; conditions: for Nombre d'animaux survivants: at 30 days
Source text: L'activité antitumorale du DAH a été aussi étudiée sur deux autres modèles murins : le lymphome L5178Y et la leucémie P388.
Les cellules de la leucémie P388 sont maintenues par passage intrapéritonéaux chez la souris DBA/2 et injectées, pour les essais, à la dose de […] par souris sur la souris B6D2F1.

leucémie L1210 = assay: Antitumour activity in the L1210 leukaemia model, survival; type: in vivo, souris B6D2F1/J; conditions: for Nombre d'animaux survivants: at 30 days
Source text: L'activité antitumorale du DAH et du LAH a été étudiée sur le modèle de leucémie L1210. Les cellules leucémiques L1210 sont maintenues par passages intrapéritonéaux dans la souris B6D2F1/J mâle. […] La durée d'observation est de 30 jours.

## N[C@@H](CC(=O)NO)C(=O)O [DAH, D-acide aspartique β-hydroxamate]
[1]
  toxicité pour les lymphocytes non infectés par le virus HIV: n'est pas toxique
[2]
  activité in vivo sur trois modèles tumoraux murins: aucune activité
[3]
  effet sur l'activité RT: aucun effet
[4]
  modification structurale du DAH éliminé par voie urinaire: aucune modification structurale
  pic plasmatique moyen: 6 mg/mL
  pic urinaire: 220 mg/mL
  temps du pic plasmatique: 20 min
  élimination urinaire prolongée sur: 24 heures
[4]; after injection
  temps du pic urinaire: 250 min
[4]; decrease of plasma concentration
  demi-vie: 35 min
[5]
  DL 10 (10 % de mortalité): 8,5-9 g/kg and 8,5 g/kg
  DL 50: 11 to 12 g/kg
  DL 90: 14 to 15 g/kg
[6]
  toxicité vis-à-vis des lymphocytes infectés par le virus du SIDA: plus toxique
leucémie P388; 1,5 g/kg x4/j, days 1,2,3
  T/Cx100: 155%
  Nombre d'animaux survivants: 0/5
leucémie P388; 1,5 g/kg x 4/j, days 1,2,3,4,5
  T/Cx100: 190%
  Nombre d'animaux survivants: 0/5
leucémie L1210; 0,5 g/kg x4/j, days 1,2,3
  T/Cx100: 113%
  Nombre d'animaux survivants: 0/5
leucémie L1210; 1,5 g/kg x4/j, days 1,2,3
  T/Cx100: 276%
  Nombre d'animaux survivants: 0/5
leucémie L1210; 1,5 g/kg x4/j, days 1,2,3,4
  T/Cx100: 347%
  Nombre d'animaux survivants: 3/5
leucémie L1210; 1 g/kg x3/j, days 1-10
  T/Cx100: 347%
  Nombre d'animaux survivants: 3/5
leucémie L1210; 1 g/kg x4/j, days 1,2,3
  T/Cx100: 171%
  Nombre d'animaux survivants: 0/5
leucémie L1210; 1 g/kg, 4 times a day for 3 days
  survie des animaux traités: prolongation très significative de la survie
leucémie L1210; dose of 1 g/kg or more, 3 or 4 times a day
  activité antitumorale: activité antitumorale significative
